compound: T1, CC(=O)c1c(C)c2cnc(Nc3ccc(N4CCN(CCOCCOCCOCCNC(=O)COc5cccc6c5C(=O)N(C5CCC(=O)NC5=O)C6=O)CC4)cn3)nc2n(C2CCCC2)c1=O [BSJ-03-123]; experiment: not given; conditions: not given
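For GR50, 72 h in this document: breast cancer and non-malignant breast epithelial cell lines, Deep Dye Drop or Dye Drop imaging, nine half-log doses, GR normalized to time-zero plates and DMSO-only controls.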

In order of rising “GR50, 72 h” value:
1. MDAMB415  1.36 µM
2. MDAMB453  1.8 µM
3. MDAMB436  7.25 µM

compound: CC1=CN2C(=O)C=C(N=C2C(=C1)C(C)NC3=CC=CC=C3)N4CCOCC4 [TGX221]; experiment: not given; conditions: not given

First: MDAMB415
Second: MDAMB436
The “GR50, 72 h” value of the first is lower: 1.81 µM for the first, > 10 µM for the second.

For MDAMB453, the “GR50, 72 h” value was > 10 µM.

compound: CCOc1cc2ncc(C#N)c(Nc3ccc(OCc4ccccn4)c(Cl)c3)c2cc1NC(=O)/C=C/CN(C)C [Neratinib/HKI272]; experiment: not given; conditions: not given

In order of rising “GR50, 72 h” value:
1. MDAMB453  0.0361 µM
2. MDAMB436  0.715 µM
3. MDAMB415  1.65 µM

compound: CN(C)C/C=C/C(=O)Nc1ccc(C(=O)Nc2cccc(Nc3ncc(Cl)c(-c4c[nH]c5ccccc45)n3)c2)cc1 [THZ1]; experiment: not given; conditions: not given

In order of rising “GR50, 72 h” value:
1. MDAMB453  0.0116 µM
2. MDAMB415  0.0347 µM
3. MDAMB436  0.135 µM

compound: CN(C)C/C=C/C(=O)Nc1ccc(O[C@@H]2CCC[C@@H](Nc3ncc(Cl)c(-c4c[nH]c5ccccc45)n3)C2)cc1 [BSJ-01-175]; experiment: not given; conditions: not given

In order of rising “GR50, 72 h” value:
1. MDAMB453  0.00336 µM
2. MDAMB436  0.00965 µM
3. MDAMB415  0.0616 µM

compound: CN(C)CC[C@H](CSc1ccccc1)Nc1ccc(S(=O)(=O)NC(=O)c2ccc(N3CCN(Cc4ccccc4-c4ccc(Cl)cc4)CC3)cc2)cc1[N+](=O)[O-] [ABT-737]; experiment: not given; conditions: not given

Compared with MDAMB415, MDAMB436 is higher in “GR50, 72 h” value: 7.69 µM for the first, > 10 µM for the second.

With MDAMB453 the “GR50, 72 h” value was 5.97 µM.

compound: CN1CCN(CCOc2cc(OC3CCOCC3)c3c(Nc4c(Cl)ccc5c4OCO5)ncnc3c2)CC1 [Saracatinib/AZD0530]; experiment: not given; conditions: not given

Compared with MDAMB415, MDAMB436 is higher in “GR50, 72 h” value: 4.22 µM for the first, > 10 µM for the second.

With MDAMB453 the “GR50, 72 h” value was 8.37 µM.

compound: CN1CC[C@H](c2c(O)cc(O)c3c(=O)cc(-c4ccccc4Cl)oc23)[C@H](O)C1 [Flavopiridol]; experiment: not given; conditions: not given

In order of rising “GR50, 72 h” value:
1. MDAMB453  0.134 µM
2. MDAMB436  0.159 µM
3. MDAMB415  0.172 µM

compound: CNCc1ccc(-c2[nH]c3cc(F)cc4c3c2CCNC4=O)cc1 [Rucaparib]; experiment: not given; conditions: not given

Compared with MDAMB415, MDAMB436 is lower in “GR50, 72 h” value: > 10 µM for the first, 0.828 µM for the second.

For MDAMB453, the “GR50, 72 h” value was 6.58 µM.

compound: COc1ccc2c(c1)[C@]1(C[C@H]1c1ccc3c(/C=C/c4ccc(CN5C[C@@H](C)O[C@@H](C)C5)cc4)n[nH]c3c1)C(=O)N2; experiment: not given; conditions: not given

In order of falling “GR50, 72 h” value:
1. MDAMB415  0.0239 µM
2. MDAMB453  0.00348 µM
3. MDAMB436  0.00237 µM

compound: C=CC(=O)Nc1ccc(C(=O)Nc2[nH]nc3c2CN(C(=O)N[C@H](CN(C)C)c2ccccc2)C3(C)C)cc1 [YKL-5-124]; experiment: GR value, 72 h; higher = faster growth (1 = untreated, <0 = killing); conditions: 0.001 µM;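 also: breast cancer and non-malignant breast epithelial lines, nine half-log doses, viable cells counted by Hoechst and LIVE/DEAD dye imaging versus time-zero plates and DMSO controls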

In order of rising GR value:
1. MDAMB453  0.574 GR
2. MDAMB415  0.597 GR
3. MDAMB436  0.84 GR

same assay, conditions: 0.003162 µM

In order of falling GR value:
1. MDAMB436  0.563 GR
2. MDAMB415  0.543 GR
3. MDAMB453  0.333 GR

same assay, conditions: 0.01 µM

In order of falling GR value:
1. MDAMB436  0.533 GR
2. MDAMB415  0.372 GR
3. MDAMB453  0.209 GR

same assay, conditions: 0.03162 µM

In order of rising GR value:
1. MDAMB453  0.209 GR
2. MDAMB415  0.396 GR
3. MDAMB436  0.432 GR

same assay, conditions: 0.1 µM

In order of falling GR value:
1. MDAMB436  0.409 GR
2. MDAMB415  0.338 GR
3. MDAMB453  0.143 GR

same assay, conditions: 0.3162 µM

In order of rising GR value:
1. MDAMB453  0.0956 GR
2. MDAMB415  0.279 GR
3. MDAMB436  0.3 GR

same assay, conditions: 1 µM

In order of rising GR value:
1. MDAMB453  0.128 GR
2. MDAMB415  0.323 GR
3. MDAMB436  0.405 GR

same assay, conditions: 3.162 µM

In order of falling GR value:
1. MDAMB436  0.291 GR
2. MDAMB415  0.24 GR
3. MDAMB453  0.143 GR

same assay, conditions: 10 µM

In order of falling GR value:
1. MDAMB415  -0.0052 GR
2. MDAMB436  -0.0192 GR
3. MDAMB453  -0.503 GR

compound: T1, BSJ-03-123; experiment: as above; conditions: 0.001 µM

In order of falling GR value:
1. MDAMB436  1.1 GR
2. MDAMB453  0.989 GR
3. MDAMB415  0.922 GR

same assay, conditions: 0.003162 µM

In order of falling GR value:
1. MDAMB436  1.07 GR
2. MDAMB453  0.922 GR
3. MDAMB415  0.789 GR

same assay, conditions: 0.01 µM

In order of rising GR value:
1. MDAMB415  0.714 GR
2. MDAMB453  0.874 GR
3. MDAMB436  1.02 GR

same assay, conditions: 0.03162 µM

In order of rising GR value:
1. MDAMB415  0.825 GR
2. MDAMB453  0.843 GR
3. MDAMB436  1.03 GR

same assay, conditions: 0.1 µM

In order of rising GR value:
1. MDAMB415  0.744 GR
2. MDAMB453  0.841 GR
3. MDAMB436  1.11 GR

same assay, conditions: 0.3162 µM

In order of falling GR value:
1. MDAMB436  0.971 GR
2. MDAMB453  0.699 GR
3. MDAMB415  0.674 GR

same assay, conditions: 1 µM

In order of rising GR value:
1. MDAMB415  0.61 GR
2. MDAMB453  0.639 GR
3. MDAMB436  0.999 GR

same assay, conditions: 3.162 µM

In order of rising GR value:
1. MDAMB415  0.545 GR
2. MDAMB453  0.575 GR
3. MDAMB436  0.966 GR

same assay, conditions: 10 µM

In order of falling GR value:
1. MDAMB415  0.181 GR
2. MDAMB453  -0.011 GR
3. MDAMB436  -0.0484 GR

compound: CC(=O)c1c(C)c2cnc(Nc3ccc(N4CCNCC4)cn3)nc2n(C2CCCC2)c1=O; experiment: as above; conditions: 0.0003162 µM

In order of rising GR value:
1. MDAMB415  0.995 GR
2. MDAMB436  1.06 GR
3. MDAMB453  1.08 GR

same assay, conditions: 0.001 µM

In order of falling GR value:
1. MDAMB453  1.06 GR
2. MDAMB436  1.04 GR
3. MDAMB415  0.983 GR

same assay, conditions: 0.003162 µM

In order of falling GR value:
1. MDAMB436  1.03 GR
2. MDAMB453  0.994 GR
3. MDAMB415  0.933 GR

same assay, conditions: 0.01 µM

In order of rising GR value:
1. MDAMB415  0.791 GR
2. MDAMB453  0.851 GR
3. MDAMB436  1.04 GR

same assay, conditions: 0.03162 µM

In order of rising GR value:
1. MDAMB415  0.498 GR
2. MDAMB453  0.607 GR
3. MDAMB436  0.977 GR

same assay, conditions: 0.1 µM

In order of falling GR value:
1. MDAMB436  1.03 GR
2. MDAMB415  0.298 GR
3. MDAMB453  0.278 GR

same assay, conditions: 0.3162 µM

In order of rising GR value:
1. MDAMB453  0.105 GR
2. MDAMB415  0.17 GR
3. MDAMB436  1.01 GR

same assay, conditions: 1 µM

In order of falling GR value:
1. MDAMB436  1.09 GR
2. MDAMB415  0.178 GR
3. MDAMB453  0.0968 GR

same assay, conditions: 3.162 µM

In order of falling GR value:
1. MDAMB436  1.02 GR
2. MDAMB415  0.121 GR
3. MDAMB453  0.0641 GR

compound: CCN1CCN(Cc2ccc(Nc3ncc(F)c(-c4cc(F)c5nc(C)n(C(C)C)c5c4)n3)nc2)CC1; experiment: as above; conditions: 0.001 µM

In order of rising GR value:
1. MDAMB415  0.878 GR
2. MDAMB453  0.908 GR
3. MDAMB436  1.04 GR

same assay, conditions: 0.003162 µM

In order of rising GR value:
1. MDAMB453  0.615 GR
2. MDAMB415  0.833 GR
3. MDAMB436  1 GR

same assay, conditions: 0.01 µM

In order of rising GR value:
1. MDAMB453  0.211 GR
2. MDAMB415  0.478 GR
3. MDAMB436  1.04 GR

same assay, conditions: 0.03162 µM

In order of rising GR value:
1. MDAMB453  0.0514 GR
2. MDAMB415  0.21 GR
3. MDAMB436  1.03 GR
